Source: patent publication US5026724A, “Compounds with bronchodilator activity” (Akzo N.V., priority 1988, dated 1991)
pEC50: −log10 of the molar value. Where a name gives a salt, the structure may show the parent alone.

Test system: Isolated, single ring preparations of guinea-pig trachea
Test: relaxant effect after tone contracture induced by histamine in isolated guinea-pig trachea rings
Format: cell-based
Settings: Cavia porcellus, contracture by histamine (40 μM), flurbiprofen (1 μM) present, 37° C., cumulative concentration-effect curves
Experimental: Compounds of formula I show strong bronchodilator activity, which for instance can be measured by the relaxant effect of the compounds after tone contracture by histamine, which is determined as follows. Isolated, single ring preparations of guinea-pig trachea were suspended in tissue baths containing KrebsHenseleit solution, at 37° C., bubbled with a gaseous mixture of 5% CO2 and 95% 02 Tissues were allowed to equilibrate for 60 min. after which flurbiprofen (1 μM), a cyclo-oxygenase inhibitor, was added to the tissue bath and a further 60 min. equilibration allowed to elapse. The flurbiprofen remained in contact with the tissue for the duration of the experiment in order to eliminate the complications that arise in guinea-pig airway preparations due to the spontaneous and agonist-induced generation of cyclo-oxygenase products (for example PGE2 and PGF2α) No other drugs (e.g. atropine or β-adrenoceptor antagonists) were present during the experimental protocol. […] Thus, tone (contracture) was induced by addition of an equi-effective (EC50) concentration of histamine (40 μM). The relaxant effects of each compound were tested by constructing cumulative concentration-effect curves. In each experiment, three preparations were contracted with histamine. After completion of the relaxant concentration-effect curves the compound under test was thoroughly washed out from the preparations which were then left to recover to control levels of resting tension (approx. 60 min.). Results of this test for the compounds of formula I are denoted in the table.

Row | Structure (SMILES) | pEC50
1 | COc1cc2c(cc1OC)CCC(C(=N)NO)=C2 [H OCH3 H NH2 (CH2)2 HCl, 1,2-dihydro-N-hydroxy-6,7-dimethoxy-naphthalene-3-carboximidamide] | 5.52
2 | COc1cc2cc(/C(C)=N/O)sc2cc1OC [H OCH3 H CH3 (E-isomer) S none, (E)-1-(5,6-dimethoxy-benzo[b]thien-2-yl)-ethanone oxime] | 7.00
3 | COc1cc2sc(C=NO)cc2c(Cl)c1OC (mixture of isomers) [Cl OCH3 H H(Z/E mixture) S none, 4-chloro-5,6-dimethoxy-benzo[b]thiophene-2-carboxaldehyde oxime] | 5.30
4 | COc1cc2cc(/C=N/O)sc2cc1OC [H OCH3 H H(E-isomer) S none, (E)-5,6-dimethoxy-benzo[b]thiophene-2-carboxaldehyde oxime] | 5.70
5 | COc1cc2cc(/C=N\O)sc2cc1OC [H OCH3 H H(Z-isomer) S none, (Z)-5,6-dimethoxy-benzo[b]thiophene-2-carboxaldehyde oxime] | 5.30

Further lines, results first:

Row | pEC50 | Structure (SMILES)
6 | 5.10 | COc1c(OC)c(Cl)c2sc(C(=N)NO)cc2c1Cl [Cl OCH3 Cl NH2 S HCl, 4,7-dichloro-N-hydroxy-5,6-dimethoxy-benzo[b]thiophene-2-carboximidamide hydrochloride]
7 | 5.00 | COc1cc2sc(C(=N)NO)cc2c(Cl)c1O [Cl OH H NH2 S HCl, 4-chloro-5,N-dihydroxy-6-methoxy-benzo[b]thiophene-2-carboximidamide hydrochloride]
8 | 6.00 | COc1cc2sc(C(=N)NO)cc2c(Br)c1OC [Br OCH3 H NH2 S CH3 SO3 H, 4-bromo-N-hydroxy-5,6-dimethoxy-benzo[b]thiophene-2-carboximidamide methanesulphonate]
9 | 5.10 | COc1cc2cc(C(=N)NO)sc2cc1OC [H OCH3 H NH2 S none, N-hydroxy-5,6-dimethoxy-benzo[b]thiophene-2-carboximidamide]
10 | 5.60 | COc1cc2sc(C(=N)NO)cc2c(F)c1OC [F OCH3 H NH2 S CH3 SO3 H, 4-fluoro-N-hydroxy-5,6-dimethoxy-benzo[b]thiophene-2-carboximidamide]
11 | 5.30 | COc1cc2sc(C(=N)NO)cc2cc1OC(F)F [H OCHF2 H NH2 S HCl, 5-difluoromethyloxy-N-hydroxy-6-methoxy-benzo[b]thiophene-2-carboximidamide hydrochloride]
12 | 5.30 | COc1cc(OC)c2cc(C(=N)NO)oc2c1 [OCH3 H H NH2 O HCl, N-hydroxy-4,6-dimethoxy-benzo[b]furan-2-carboximidamide]
